From ChEMBL document CHEMBL1131355 (Bioorg Med Chem Lett, 1998)

These compounds were tested against 5-hydroxytryptamine receptor 2A (Rattus norvegicus, UniProt P14842) (assay: biochemical).
Type: tissue-based, Frontal cortex, Membrane
Description: Compound was measured for the inhibition of [3H]ketanserin binding to rat frontal cortex membrane (5-HT2A receptor)

Chain of 5-hydroxytryptamine receptor 2A (P14842 whole entry): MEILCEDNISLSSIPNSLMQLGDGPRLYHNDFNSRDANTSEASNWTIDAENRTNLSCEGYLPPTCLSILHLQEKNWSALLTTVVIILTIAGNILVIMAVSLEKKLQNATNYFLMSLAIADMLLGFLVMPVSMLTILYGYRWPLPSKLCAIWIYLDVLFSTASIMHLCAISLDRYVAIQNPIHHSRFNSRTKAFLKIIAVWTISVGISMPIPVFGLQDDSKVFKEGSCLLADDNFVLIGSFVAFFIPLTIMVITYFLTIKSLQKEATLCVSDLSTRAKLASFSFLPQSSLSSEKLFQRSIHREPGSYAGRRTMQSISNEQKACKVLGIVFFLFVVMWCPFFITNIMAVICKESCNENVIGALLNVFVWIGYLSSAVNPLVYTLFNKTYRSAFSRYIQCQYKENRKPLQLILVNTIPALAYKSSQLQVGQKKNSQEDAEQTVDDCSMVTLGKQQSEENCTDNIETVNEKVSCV

Row | Compound | Ki
1 | O=C1CC(CN2CCC(C(=O)c3ccc(F)cc3)CC2)Cc2[nH]c3ccccc3c21 (stereo not drawn) | 9.12 nM
2 | COc1ccccc1N1CCN(CC2CC(=O)c3c([nH]c4ccccc34)C2)CC1 (stereo not drawn) | 631 nM
3 | O=C1CC(CN2CCC(c3noc4cc(F)ccc34)CC2)Cc2[nH]c3ccccc3c21 (stereo not drawn) | 1.58 nM
